{
  "source": "patent US9040498B2",
  "about": "“1,2,3-Triazolyl purine derivatives” (RESEARCH FOUNDATION OF THE CITY UNIVERSITY OF NEW YORK, priority 2012, dated 2015)",
  "key": {"HEL cell": {"system": "HEL cell", "test": "HEL cell effects: cell morphology (minimum cytotoxic concentration)", "conditions": "minimum cytotoxic concentration causing microscopically detectable alteration of cell morphology"}, "CMV Davis strain": {"system": "CMV Davis strain", "test": "Anti-CMV activity in HEL cell cultures, Davis strain", "format": "cell-based, cytomegalovirus", "conditions": "Human betaherpesvirus 5; HEL cell cultures; reduce virus plaque formation by 50%; virus input 100 PFU"}, "[1]": {"system": "p53KO HCT116 cancer cell line", "test": "GI50 against p53KO HCT116 cancer cell line", "conditions": "Homo sapiens, HCT-116, 96 h, read-out: GI50 p53KO"}, "CMV AD-169 strain": {"system": "CMV AD-169 strain", "test": "Anti-CMV activity in HEL cell cultures, AD-169 strain", "format": "cell-based, cytomegalovirus", "conditions": "Human betaherpesvirus 5, AD169; HEL cell cultures; reduce virus plaque formation by 50%; virus input 100 PFU"}, "[2]": {"system": "colorectal (HCT116) cancer cell line", "test": "GI50 against colorectal cancer cell line HCT116", "conditions": "Homo sapiens, HCT-116, 96 h, read-out: GI50 HCT116"}, "[3]": {"system": "paclitaxel-resistant (PTX22) ovarian cancer cell line", "test": "GI50 against paclitaxel-resistant ovarian cancer cell line PTX22", "conditions": "96 h, read-out: GI50 PTX22"}, "[4]": {"system": "paclitaxel-resistant (PTX10) ovarian cancer cell line", "test": "GI50 against paclitaxel-resistant ovarian cancer cell line PTX10", "conditions": "PTX10, 96 h, read-out: GI50 PTX10"}, "[5]": {"system": "murine leukemia L1210, human lymphocyte CEM, and HeLa cells", "test": "Cytostatic activity against L1210, CEM and HeLa cells", "format": "cell-based", "method": "The cytostatic effects of the test compounds on murine leukemia cells (L1210), human T-lymphocyte cells (CEM) and human cervix carcinoma cells (HeLa) were evaluated as follows: an appropriate number of cells suspended in growth medium were allowed to proliferate in 200-μL-wells of 96-well-microtiter plates in the presence of variable amounts of test compounds at 37° C. in a humidified CO2-controlled atmosphere. After 48 h (L1210), 72 h (CEM) or 96 h (HeLa), the number of cells was counted in a Coulter counter. The IC50 value is defined as the concentration required to inhibit cell proliferation by 50%."}, "[6]": {"system": "ovarian (1A9) cancer cell line", "test": "GI50 against ovarian cancer cell line 1A9", "conditions": "96 h, read-out: GI50 1A9"}},
  "note": "Read-outs that look alike come from different tables or passages of the source.",
  "data": [
    {"smiles": "OC[C@H]1O[C@@H](n2cnc3c(N4CCOCC4)nc(-n4cc(-c5ccccc5)nn4)nc32)[C@@H](O)C1O", "note": "(stereo partly drawn) [Compound 34, 6-(Morpholin-4-yl)-2-(4-phenyl-1,2,3-triazol-1H-yl)-9-(β-D-ribofuranosyl)purine]", "values": [
      {"measurement": "HEL cell effects cell morphology (MDC)", "setting": "HEL cell", "value": 240, "unit": "μM"},
      {"measurement": "EC50", "setting": "CMV Davis strain", "value": "> 40", "unit": "µM"},
      {"measurement": "GI50", "setting": "[1]", "value": 10.4, "unit": "µM"},
      {"measurement": "minimum detectable morphology-altering (cytotoxic) concentration (MCC)", "setting": "canine kidney MDCK", "value": 8.3, "unit": "μM"},
      {"measurement": "EC50", "setting": "CMV AD-169 strain", "value": "> 40", "unit": "µM"},
      {"measurement": "minimum detectable morphology-altering (cytotoxic) concentration (MCC)", "setting": "HeLa; HeLa (first mention)", "value": 42, "unit": "μM"},
      {"measurement": "minimum detectable morphology-altering (cytotoxic) concentration (MCC)", "setting": "HeLa; HeLa cells", "value": "≥ 40", "unit": "μM"},
      {"measurement": "GI50", "setting": "[2]", "value": 3.7, "unit": "µM"},
      {"measurement": "GI50", "setting": "[3]", "value": 0.95, "unit": "µM"},
      {"measurement": "GI50", "setting": "[4]", "value": 11.7, "unit": "µM"},
      {"measurement": "cytostatic activity (in words)", "setting": "[5]; L1210, CEM, HeLa", "value": "poorly cytostatic"},
      {"measurement": "IC50", "setting": "[5]; range over L1210 (48 h), CEM (72 h), HeLa (96 h)", "value": "98 to 185", "unit": "µM"},
      {"measurement": "minimum detectable morphology-altering (cytotoxic) concentration (MCC)", "setting": "green monkey kidney Vero", "value": 210, "unit": "μM"},
      {"measurement": "minimum detectable morphology-altering (cytotoxic) concentration (MCC)", "setting": "feline kidney CRFK", "value": 83, "unit": "μM"},
      {"measurement": "GI50", "setting": "[6]", "value": 0.18, "unit": "µM"}
    ]}
  ]
}
